Values belong to the molecule of their own block, whether it stands above or below them.
Experiments:
[1] = Pharmacokinetics in plasma, CSF and cortical brain tissue after i.p. injection
Experimental: (§1) Blood (approximately 100 µl) was collected from the vena facialis in anaesthetised animals, followed by CSF sampling (approximately 10 µl) from the cisterna magna under pentobarbital anaesthesia (1:25 in saline, 10 ml/kg, i.p., Narcoren, Boehringer Ingelheim, Germany). Subsequently, the brain was removed and its anterior third (including the medial prefrontal and anterior cingulate cortices) dissected and transferred into Precellys tubes cooled in liquid nitrogen. For plasma extraction, blood was transferred to EDTA coated tubes and centrifuged for 10 min at 10,000 rpm at 4 °C. Maximal plasma concentration (Cmax), time taken to reach maximal plasma concentration (Tmax) and mean residence time were assessed using liquid chromatography–mass spectrometry analysis executed on the HP1200 (Agilent, CA, USA) coupled to the API 6500 (AB Sciex, Germany) using BI00001052 (Boehringer Ingelheim) as internal standard. In short, 5 µl of plasma or CSF sample were mixed with 10 nl internal standard. 70 µl acetonitrile (ACN)/methanol (1:1) was added, kept at −20 °C for 15 min and centrifuged for 4 min at 4000 rpm at 4 °C. 30 µl of the supernatant was mixed with 170 µl 0.1% formic acid. Brain homogenization was executed by Precellys Evolution (Bertin) after adding ACN/methanol (1:1)/aq.dest. (3:1) to each brain sample with a volume corresponding to 4 parts of the brain weight, followed by centrifugation for 1 min at 4000 rpm at 4 °C. 5 µl of the supernatant was mixed with 10 nl of internal standard.

D2 dopamine receptor = target: T1, D2 dopamine receptor (Homo sapiens, UniProt P14416); assay: Off-target radioligand binding; conditions: 10 μM compound
T1 construct: expressed in transfected cells; host or cells: HEK-293 or CHO

hM3Dq = system: hM3Dq; set-up: method as in PMID 25587888; conditions: FLIPR assay; cited from earlier work
M2 muscarinic receptor = target: T2, M2 muscarinic receptor (Homo sapiens, UniProt P08172); assay: Off-target radioligand binding; conditions: 10 μM compound
T2 construct: expressed in transfected cells; host or cells: HEK-293 or CHO

hM4Di = target: T3, hM4Di (Homo sapiens, UniProt P08173, A203G/Y113C); assay: FLIPR Ca2+ oscillation assay in primary rat neuronal cultures transduced with hM4Di; assay type: cell-based; conditions: reduction of Ca2+ oscillation frequency, hM4Di-transduced rat primary neurons, Hill fit; read-out: half maximal effective concentration (EC50) at hM4Di
T3 construct: expressed in transfected cells; host or cells: primary cortical neurons of embryonic (E18) Sprague-Dawley rats, AAV-transduced
T3 sequence (P08173 1-479 Y113C/A203G): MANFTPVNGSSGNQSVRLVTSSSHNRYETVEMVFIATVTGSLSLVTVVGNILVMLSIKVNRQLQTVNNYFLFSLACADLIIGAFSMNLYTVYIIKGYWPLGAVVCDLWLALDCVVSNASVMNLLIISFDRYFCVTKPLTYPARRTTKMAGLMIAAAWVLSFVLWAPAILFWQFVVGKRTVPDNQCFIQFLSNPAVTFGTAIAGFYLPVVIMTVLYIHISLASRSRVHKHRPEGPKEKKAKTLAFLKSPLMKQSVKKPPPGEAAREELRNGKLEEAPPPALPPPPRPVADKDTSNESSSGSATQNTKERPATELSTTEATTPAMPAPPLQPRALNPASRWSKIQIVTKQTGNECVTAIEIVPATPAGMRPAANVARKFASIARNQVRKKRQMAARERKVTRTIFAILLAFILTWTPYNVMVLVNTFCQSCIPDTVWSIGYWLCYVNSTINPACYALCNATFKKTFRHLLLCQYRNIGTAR
Experimental: Briefly, cortices were dissected from embryonic brains, meninges were removed, and cortices transferred into ice-cold dissociation buffer (2 mM kynurenic acid, 10 mM HEPES, 20 mM MgCl2 (Fluka, Germany) and 33.4 mM Glucose in Hank’s Balanced Salt Solution (HBSS), pH 7.4 (Gibco, Thermo Fischer Scientific, Massachusetts, USA). Cortices were then dissociated in 20 units/ml papain solution (5.5 mM L- Cysteine hydrochloride, 1.1 mM ethylenediamine tetra-acetic acid [EDTA], 0.067 mM 2-Mercaptoethanol in Minimum Essential Medium [MEM]) for 15 min at 37 °C. Cortices were washed twice by adding 20 ml plating medium (1:50 foetal calve serum, 1:100 penicillin/streptomycin and 1:100 GlutaMax in MEM) followed by cell filtration using a 70 µm cell strainer (Corning, model #352350, Merck, Germany) to obtain a single-cell suspension. Dissociated cells were re-suspended in serum-free Neurobasal medium with Glutamax and B27 supplement (Gibco) and plated on PDL-coated 96 MTPs (Corning #356640). Virus (ssAAV-1/2-hSyn1-hM4D[Gi]_mCherry-WPRE-hGHp[A]) transduction was performed immediately after plating. Cells were maintained at 37 °C (5% CO2 and 10% O2) in a humidified incubator. A half feed medium change was done on DIV8. Final assay conditions used for evaluating activity of compounds were 0.95 × 10^5 cells/cm^2, transduced with 10.000 multiplicity of infection and measured on DIV9.
Medium was removed and cells were incubated in assay buffer (HBSS, Gibco, 10 mM HEPES, pH 7.4) containing 4 µM Fluo-4AM (Thermo Fischer Scientific) and 0.1% Pluronic F-127 (Thermo Fischer Scientific #P3000MP) for 1 h at room temperature in the dark. Loading buffer was then replaced with assay buffer. After 10 min, assay plates were measured in the FLIPR tetra (Molecular Devices, California, USA) using green fluorescence filter settings (excitation 470–495 nm, emission 515–575 nm). Fluorescence signals were recorded at 1 s intervals (0.4 s exposure time). Compound addition was automated in a single addition protocol. Tested compounds (concentrations:0.3 nM–1 µM; retigabine at 30 µM) were added after recording a baseline response for 5 min followed by another 5 min for recording compound effects on Ca^2+ oscillations. Each compound dose was repeated on three individual plates in duplicates.
Time-series raw fluorescence traces recorded from the FLIPR assay were analysed by detecting Ca^2+ peaks based on a fixed amplitude threshold[19]. The change in oscillation frequency was determined by counting the number of peaks in a defined time interval (5 min) before and after addition of the tested compound and calculating the Ca^2+ oscillations frequency from their number. […] For visualisation, all data were transferred to GraphPad Prism 7 (Graphpad Software, Inc., CA, USA).

AChE = AChE (Homo sapiens, UniProt P22303); conditions: 10 μM compound, not shown
COX2 = COX2 (Homo sapiens, UniProt P35354); assay: Off-target enzyme assay; assay type: biochemical; conditions: 10 μM compound, not shown
C57BL/6 J mice = assay: 5-choice serial-reaction-time task (5-CSRTT), unspecific behavioural effects; assay type: in vivo
Experimental: Training was performed in 16 standard mouse Bussey-Saksida touchscreen chambers (model #80614, Campden Instruments Ltd., UK), previously described in detail. In short, each trapezoidal operant chamber was placed in a sound- and light- attenuating box individually equipped with a house light, a reward magazine with light, a liquid reward dispenser, a sound generator, a perforated stainless steel floor, and a touchscreen placed at the wide end of the chamber and covered permanently by a black acrylic glass 5-hole mask. The reward magazine, located opposite the touchscreen, was connected to a liquid dispenser delivering strawberry milk (Yazoo®). Infrared break-beam sensors located inside and on the front of the food magazine as well as on the touch-screen walls allowed the detection of reward delivery and the animal’s locomotor activity, respectively. Four individual chambers were connected to one computer for controlling the task flow using the graphical task design software ABET II Touch (model #89505, Campden Instruments Ltd., UK) and the WhiskerServer software (Cambridge University Technical Services Ltd., UK)[27].
Mice were habituated to the chambers for three consecutive 20-min sessions during which the house light and magazine light were permanently on. At the start of each session, 30 µl strawberry milk was delivered. Every 15 s after head entry into the magazine, an additional 30 µl strawberry milk was delivered. Head entry turned the magazine light off.
The 5-CSRTT training protocol, originally designed for rats[28], was similar as that previously described for mice[29]–[31]. The training comprised six stages with 30-min sessions initiated by the illumination of the house and magazine lights and delivery of 20 µl strawberry milk. Collection of the reward switched the magazine light off and started the first trial.
In the first stage, the middle window was permanently illuminated, which was turned off when touched, followed by reward delivery (20 µl) with illumination of the magazine light. Head entry switched off the magazine light. Mice performing 30 trials in a session continued to the next stage. Training sessions in stages 2–6 comprised a maximum of 120 trials. Collection of the reward initiated the inter-trial interval (ITI) followed by the illumination of one pseudo-randomly selected aperture for a fixed stimulus duration (SD). Any touch to the screen during the ITI was classified as a premature response which was not counted as a trial and terminated the current trial. Following stimulus detection, a nose poke to the corresponding aperture within a fixed time interval (limited hold; LH) was required for reward delivery. Premature responses made during the ITI, incorrect responses, and the omission of a response within the LH led to a timeout (TO, house light switched off for 4 s) instead of delivery of reward. Correct, incorrect and omitted responses defined the total number of trials. […] The criteria to pass the last stage and reach baseline performance were to complete >30 correct trials, with ≥80% accuracy and ≤30% omissions. Percentage accuracy was defined as the number of correct trials divided by the sum of correct and incorrect trials. Percentage omissions were calculated in terms of the number of completed trials. Premature responding was calculated as a percentage of completed trials. Perseveration was calculated as the number of additional responses made in the same aperture following a correct response. Additionally, the correct-response latency (time from stimulus presentation to correct response) and reward latency (time from correct response to reward collection) were measured across all trials.
Either one or up to three days before, as well as one day after the task challenge, mice were trained at baseline conditions to check for any unexpected changes in task performance (e.g. by long lasting drug- or challenge-induced effects). […]

M1 muscarinic receptor = target: T4, M1 muscarinic receptor (Homo sapiens, UniProt P11229); assay: Off-target radioligand binding; conditions: 10 μM compound
T4 construct: expressed in transfected cells; host or cells: HEK-293 or CHO

[2] = target: T5, 5-HT2B serotonin receptor (Homo sapiens, UniProt P41595); assay: Off-target radioligand binding; conditions: 10 μM compound
T5 construct: expressed in transfected cells; host or cells: HEK-293 or CHO

[3] = target: T6, 5-HT1A serotonin receptor (Homo sapiens, UniProt P08908); assay: Off-target radioligand binding; conditions: 10 μM compound
T6 construct: expressed in transfected cells; host or cells: HEK-293 or CHO

δ opioid receptor = target: T7, δ opioid receptor (Homo sapiens, UniProt P41143); assay: Off-target radioligand binding; conditions: 10 μM compound
T7 construct: expressed in transfected cells; host or cells: HEK-293 or CHO

PDE3A = PDE3A (Homo sapiens, UniProt Q14432); assay: Off-target enzyme assay; assay type: biochemical; conditions: 10 μM compound, not shown
5-HT3 serotonin receptor = 5-HT3 serotonin receptor (Homo sapiens, UniProt P46098); assay: Off-target radioligand binding; conditions: 10 μM compound
H1 histamine receptor = target: T8, H1 histamine receptor (Homo sapiens, UniProt P35367); assay: Off-target radioligand binding; conditions: 10 μM compound
T8 construct: expressed in transfected cells; host or cells: HEK-293 or CHO

D1 dopamine receptor = target: T9, D1 dopamine receptor (Homo sapiens, UniProt P21728); assay: Off-target radioligand binding; conditions: 10 μM compound
T9 construct: expressed in transfected cells; host or cells: HEK-293 or CHO

μ opioid receptor = target: T10, μ opioid receptor (Homo sapiens, UniProt P35372); assay: Off-target radioligand binding; conditions: 10 μM compound
T10 construct: expressed in transfected cells; host or cells: HEK-293 or CHO

κ opioid receptor = assay: Off-target radioligand binding; set-up: species or system human; conditions: 10 μM compound
COX1 = COX1 (Homo sapiens, UniProt P23219); assay: Off-target enzyme assay; assay type: biochemical; conditions: 10 μM compound, not shown
PDE4D2 = PDE4D2 (Homo sapiens, UniProt Q08499); assay: Off-target enzyme assay; assay type: biochemical; conditions: 10 μM compound, not shown
α1A adrenoreceptor = target: T11, α1A adrenoreceptor (Homo sapiens, UniProt P35348); assay: Off-target radioligand binding; conditions: 10 μM compound
T11 construct: expressed in transfected cells; host or cells: HEK-293 or CHO

[4] = target: T12, 5-HT2A serotonin receptor (Homo sapiens, UniProt P28223); assay: Off-target radioligand binding; conditions: 10 μM compound
T12 construct: expressed in transfected cells; host or cells: HEK-293 or CHO
Experimental: Receptors and transporters of interest were overexpressed in either human recombinant human embryonic kidney (HEK)-293 or Chinese hamster ovary (CHO) cells. […] Results are expressed as percent inhibition of control-specific binding of the radioactively labelled ligand specific for the respective target. For enzyme inhibition, the effect was calculated as a percent inhibition of control enzyme activity. […] All presented values are the mean of two experiments.

M3 muscarinic receptor = target: T13, M3 muscarinic receptor (Homo sapiens, UniProt P20309); assay: Off-target radioligand binding; conditions: 10 μM compound
T13 construct: expressed in transfected cells; host or cells: HEK-293 or CHO

Lck kinase = Lck kinase (Homo sapiens, UniProt P06239); assay: Off-target enzyme assay; assay type: biochemical; conditions: 10 μM compound, not shown
[5] = system: 5-HT1B serotonin receptor; assay: Off-target radioligand binding; set-up: species or system human; conditions: 10 μM compound
in vivo = conditions: mouse, ip
Experimental: as §1

[6] = mice, 15 min after 3.0 mg/kg Cmpd-21 i.p.
[7] = mice, 60 min after 3.0 mg/kg Cmpd-21 i.p.
[8] = brain (cortical tissue), 3.5 mg/kg

PDE4D2, sequence (Q08499 303-809): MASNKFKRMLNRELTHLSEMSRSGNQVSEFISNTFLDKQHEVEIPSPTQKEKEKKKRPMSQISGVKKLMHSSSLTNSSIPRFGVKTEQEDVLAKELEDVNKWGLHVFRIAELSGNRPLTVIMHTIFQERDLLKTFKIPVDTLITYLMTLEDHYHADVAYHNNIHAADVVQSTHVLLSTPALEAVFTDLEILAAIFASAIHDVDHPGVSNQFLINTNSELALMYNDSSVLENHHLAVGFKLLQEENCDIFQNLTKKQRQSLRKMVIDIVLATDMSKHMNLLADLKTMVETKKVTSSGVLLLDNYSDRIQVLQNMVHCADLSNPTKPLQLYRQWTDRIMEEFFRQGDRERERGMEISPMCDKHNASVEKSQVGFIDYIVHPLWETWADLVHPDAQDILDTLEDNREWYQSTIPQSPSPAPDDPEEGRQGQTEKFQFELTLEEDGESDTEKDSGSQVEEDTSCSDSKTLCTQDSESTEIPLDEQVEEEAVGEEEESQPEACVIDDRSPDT
T11 sequence (P35348 whole entry): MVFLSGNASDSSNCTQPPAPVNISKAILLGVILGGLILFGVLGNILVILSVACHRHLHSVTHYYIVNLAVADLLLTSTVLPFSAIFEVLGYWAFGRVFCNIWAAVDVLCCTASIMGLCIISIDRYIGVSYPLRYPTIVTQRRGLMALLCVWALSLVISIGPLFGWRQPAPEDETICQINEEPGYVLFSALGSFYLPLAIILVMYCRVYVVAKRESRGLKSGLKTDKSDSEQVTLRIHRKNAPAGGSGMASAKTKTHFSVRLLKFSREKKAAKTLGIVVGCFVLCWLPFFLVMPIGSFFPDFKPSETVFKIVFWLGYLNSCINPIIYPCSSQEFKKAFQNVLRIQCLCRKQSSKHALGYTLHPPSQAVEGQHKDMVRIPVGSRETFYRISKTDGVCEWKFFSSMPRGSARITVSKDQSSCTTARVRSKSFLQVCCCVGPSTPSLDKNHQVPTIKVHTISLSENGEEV
T9 sequence (P21728 whole entry): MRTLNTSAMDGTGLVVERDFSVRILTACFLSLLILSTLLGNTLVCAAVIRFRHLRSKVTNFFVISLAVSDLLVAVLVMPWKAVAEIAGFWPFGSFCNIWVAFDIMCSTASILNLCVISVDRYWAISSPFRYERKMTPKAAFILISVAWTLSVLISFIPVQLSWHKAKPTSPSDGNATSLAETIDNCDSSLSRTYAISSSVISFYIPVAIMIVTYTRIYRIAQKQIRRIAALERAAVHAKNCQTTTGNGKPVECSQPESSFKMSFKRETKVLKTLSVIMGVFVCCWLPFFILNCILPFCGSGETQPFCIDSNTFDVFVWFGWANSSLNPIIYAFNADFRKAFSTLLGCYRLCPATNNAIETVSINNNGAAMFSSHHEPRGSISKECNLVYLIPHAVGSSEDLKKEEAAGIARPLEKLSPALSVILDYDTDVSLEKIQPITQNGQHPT
T13 sequence (P20309 whole entry): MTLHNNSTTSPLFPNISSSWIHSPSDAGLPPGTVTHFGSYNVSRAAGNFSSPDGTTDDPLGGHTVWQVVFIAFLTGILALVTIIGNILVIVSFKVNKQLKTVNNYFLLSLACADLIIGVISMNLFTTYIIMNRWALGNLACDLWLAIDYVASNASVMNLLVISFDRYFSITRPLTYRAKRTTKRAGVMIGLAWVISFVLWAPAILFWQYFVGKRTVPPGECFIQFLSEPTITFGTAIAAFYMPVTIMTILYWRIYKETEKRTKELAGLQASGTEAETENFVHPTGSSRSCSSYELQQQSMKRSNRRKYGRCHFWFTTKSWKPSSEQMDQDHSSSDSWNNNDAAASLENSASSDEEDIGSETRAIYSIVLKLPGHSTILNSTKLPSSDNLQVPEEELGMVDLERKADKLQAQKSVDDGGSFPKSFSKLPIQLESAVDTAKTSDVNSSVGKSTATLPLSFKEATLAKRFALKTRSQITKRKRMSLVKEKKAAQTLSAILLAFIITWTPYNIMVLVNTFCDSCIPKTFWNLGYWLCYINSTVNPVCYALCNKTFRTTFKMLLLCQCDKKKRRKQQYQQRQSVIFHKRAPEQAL
AChE, sequence (P22303 32-614): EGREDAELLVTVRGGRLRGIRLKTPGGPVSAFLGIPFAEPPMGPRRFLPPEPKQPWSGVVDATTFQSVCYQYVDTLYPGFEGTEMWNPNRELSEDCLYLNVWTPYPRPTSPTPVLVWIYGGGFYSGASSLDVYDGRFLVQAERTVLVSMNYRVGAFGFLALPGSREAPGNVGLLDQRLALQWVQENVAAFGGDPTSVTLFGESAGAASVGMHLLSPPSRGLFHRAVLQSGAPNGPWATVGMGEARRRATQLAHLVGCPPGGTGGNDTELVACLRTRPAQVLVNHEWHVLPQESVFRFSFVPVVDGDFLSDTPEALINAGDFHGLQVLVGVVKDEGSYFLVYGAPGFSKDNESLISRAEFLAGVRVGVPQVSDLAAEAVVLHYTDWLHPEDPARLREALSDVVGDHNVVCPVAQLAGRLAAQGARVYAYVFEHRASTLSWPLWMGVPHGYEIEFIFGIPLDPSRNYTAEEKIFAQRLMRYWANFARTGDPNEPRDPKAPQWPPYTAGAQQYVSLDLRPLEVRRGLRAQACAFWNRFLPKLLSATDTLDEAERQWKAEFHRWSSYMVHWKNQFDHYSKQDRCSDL
T6 sequence (P08908 whole entry): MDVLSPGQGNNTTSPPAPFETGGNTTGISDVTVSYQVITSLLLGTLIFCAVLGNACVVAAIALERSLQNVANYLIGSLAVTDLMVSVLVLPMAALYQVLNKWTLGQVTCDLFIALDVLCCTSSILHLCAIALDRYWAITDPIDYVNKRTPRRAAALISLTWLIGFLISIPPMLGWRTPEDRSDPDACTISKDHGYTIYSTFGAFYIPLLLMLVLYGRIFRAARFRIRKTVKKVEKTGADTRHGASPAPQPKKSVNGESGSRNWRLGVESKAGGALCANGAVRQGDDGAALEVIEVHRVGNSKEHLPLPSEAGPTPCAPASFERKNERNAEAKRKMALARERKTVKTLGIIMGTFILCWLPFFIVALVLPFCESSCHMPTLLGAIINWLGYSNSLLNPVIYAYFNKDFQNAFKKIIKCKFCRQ
T12 sequence (P28223 whole entry): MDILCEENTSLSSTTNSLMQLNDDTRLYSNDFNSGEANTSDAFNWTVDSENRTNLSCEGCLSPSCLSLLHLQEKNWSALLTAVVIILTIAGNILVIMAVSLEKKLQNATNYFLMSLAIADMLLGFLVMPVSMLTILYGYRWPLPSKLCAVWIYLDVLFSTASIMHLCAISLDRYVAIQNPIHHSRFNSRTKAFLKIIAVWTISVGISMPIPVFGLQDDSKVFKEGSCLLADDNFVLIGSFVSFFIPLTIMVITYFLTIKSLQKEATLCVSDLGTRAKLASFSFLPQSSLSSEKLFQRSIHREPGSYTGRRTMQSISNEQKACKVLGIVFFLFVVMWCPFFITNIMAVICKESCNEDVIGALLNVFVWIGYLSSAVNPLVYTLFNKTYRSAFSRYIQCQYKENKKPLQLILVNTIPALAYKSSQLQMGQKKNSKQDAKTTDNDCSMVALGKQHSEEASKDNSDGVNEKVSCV
COX1, sequence (P23219 24-599): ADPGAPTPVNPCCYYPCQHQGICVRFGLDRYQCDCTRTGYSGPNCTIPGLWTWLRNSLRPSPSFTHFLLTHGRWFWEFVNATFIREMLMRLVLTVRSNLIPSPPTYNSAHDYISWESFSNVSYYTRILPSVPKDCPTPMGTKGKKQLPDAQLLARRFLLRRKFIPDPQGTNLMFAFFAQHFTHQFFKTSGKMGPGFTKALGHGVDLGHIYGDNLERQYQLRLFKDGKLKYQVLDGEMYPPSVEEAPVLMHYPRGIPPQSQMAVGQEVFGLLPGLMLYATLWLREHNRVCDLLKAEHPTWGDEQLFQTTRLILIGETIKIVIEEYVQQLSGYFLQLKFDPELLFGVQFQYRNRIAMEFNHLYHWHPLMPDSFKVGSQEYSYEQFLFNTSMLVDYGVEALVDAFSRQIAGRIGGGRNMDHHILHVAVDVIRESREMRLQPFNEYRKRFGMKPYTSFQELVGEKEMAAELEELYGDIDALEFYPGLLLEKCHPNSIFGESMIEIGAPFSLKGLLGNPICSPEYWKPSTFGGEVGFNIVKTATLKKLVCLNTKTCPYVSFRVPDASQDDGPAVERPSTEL
T5 sequence (P41595 whole entry): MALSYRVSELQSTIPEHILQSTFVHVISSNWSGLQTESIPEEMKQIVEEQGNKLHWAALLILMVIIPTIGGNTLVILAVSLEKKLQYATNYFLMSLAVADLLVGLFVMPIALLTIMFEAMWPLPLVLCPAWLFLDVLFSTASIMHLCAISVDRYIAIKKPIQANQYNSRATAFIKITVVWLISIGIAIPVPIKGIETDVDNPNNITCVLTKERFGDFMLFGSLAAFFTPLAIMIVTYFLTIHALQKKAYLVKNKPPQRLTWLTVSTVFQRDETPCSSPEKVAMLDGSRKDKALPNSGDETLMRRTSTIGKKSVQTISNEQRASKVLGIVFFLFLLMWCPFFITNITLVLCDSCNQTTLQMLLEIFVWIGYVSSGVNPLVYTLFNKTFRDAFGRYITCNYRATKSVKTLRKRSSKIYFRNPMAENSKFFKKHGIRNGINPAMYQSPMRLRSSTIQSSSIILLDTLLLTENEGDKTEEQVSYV
T7 sequence (P41143 whole entry): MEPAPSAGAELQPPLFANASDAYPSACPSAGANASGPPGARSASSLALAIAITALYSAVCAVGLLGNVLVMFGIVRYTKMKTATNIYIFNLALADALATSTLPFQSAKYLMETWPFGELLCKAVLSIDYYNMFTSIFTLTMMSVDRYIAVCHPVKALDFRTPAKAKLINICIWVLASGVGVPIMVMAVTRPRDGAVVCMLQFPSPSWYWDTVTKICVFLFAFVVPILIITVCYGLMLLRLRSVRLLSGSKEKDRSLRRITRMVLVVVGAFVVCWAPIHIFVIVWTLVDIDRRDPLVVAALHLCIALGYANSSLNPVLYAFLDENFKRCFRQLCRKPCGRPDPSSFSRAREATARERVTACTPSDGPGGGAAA

SMILES: Clc1ccc2c(c1)N=C(N1CCNCC1)c1ccccc1N2 [NorCLZ, norclozapine]
detection of metabolite in plasma ([1]; mice, 15, 30, 60 min after i.p. 1 mg/kg CLZ): detectable in all plasma samples

SMILES: c1ccc2c(c1)N=C(N1CCNCC1)c1ccccc1N2 [Cmpd-21, compound 21]
competitive inhibition of ligand binding (D2 dopamine receptor): > 50%
EC50 (hM3Dq): 1.7 nM
competitive inhibition of ligand binding (M2 muscarinic receptor): > 50%
EC50 (hM4Di): 2.95 nM
inhibition (AChE): < 25%
inhibition (COX2): 60%
behavioural changes in 5-CSRTT parameters (C57BL/6 J mice; Cmpd-21 0.3, 1 and 3 mg/kg i.p.): did not produce any significant behavioural changes in any 5-CSRTT parameters
competitive inhibition of ligand binding (M1 muscarinic receptor): > 50%
competitive inhibition of ligand binding [2]: > 50%
competitive inhibition of ligand binding [3]: > 50%
competitive inhibition of ligand binding (δ opioid receptor): > 50%
inhibition (PDE3A): < 25%
competitive inhibition of ligand binding (5-HT3 serotonin receptor): > 50%
competitive inhibition of ligand binding (H1 histamine receptor): > 50%
competitive inhibition of ligand binding (D1 dopamine receptor): > 50%
mean brain concentration [1, 6]: 722 nM
mean concentration in CSF [1, 6]: 52 nM
mean concentration in plasma [1, 6]: 5833 nM
CSF concentration as % of peak value [1, 7]: 54%
mean brain concentration [1, 7]: 1273 nM
plasma concentration as % of peak value [1, 7]: 57%
time of peak plasma and CSF levels ([1]; mice, after 3.0 mg/kg Cmpd-21 i.p., earliest time point of measurement): 15 min
conversion to CLZ or CNO ([1]; mice, data not shown): did not detect any conversion
competitive inhibition of ligand binding (μ opioid receptor): > 50%
competitive inhibition of ligand binding (κ opioid receptor): > 50%
inhibition (COX1): < 25%
inhibition (PDE4D2): < 25%
competitive inhibition of ligand binding (α1A adrenoreceptor): > 50%
competitive inhibition of ligand binding [4]: > 50%
competitive inhibition of ligand binding (M3 muscarinic receptor): > 50%
inhibition (Lck kinase): < 25%
competitive inhibition of ligand binding [5]: > 50%

Kp (in vivo; C57BL/6J, CSF, 1 mg/kg): ~0.01
concentration at 15 min (in vivo; CSF, 1 mg/kg): 1.9 nM
concentration at 15 min (in vivo; [8]): ~427 nM
concentration at 60 min (in vivo; [8]): 406 nM
Kp at 15 min (in vivo; brain, 1 mg/kg): ~6
concentration at 15 min (in vivo; brain, 1 mg/kg): 2060 nM
concentration at 60 min (in vivo; brain, 1 mg/kg): 1020 nM
Tmax (in vivo; plasma, brain and CSF, 1 mg/kg): 15 min
concentration at 15 min (in vivo; plasma, 1 mg/kg): 344 nM
concentration at 60 min (in vivo; plasma, 1 mg/kg): 123 nM
attentional accuracy (C57BL/6 J mice; CLZ 0.1 mg/kg i.p., p = 0.0439): mild decrease
omissions (inattentiveness) (C57BL/6 J mice; CLZ 1 mg/kg i.p., p = 0.0108): mild increase
mean CLZ plasma concentration as % of mean CNO plasma concentration ([1]; mice, 15 min after i.p. 3.5 mg/kg CNO): approximately 3.3%
free (CSF) concentration as % of the brain concentration ([1]; mice, after i.p. 1 mg/kg CLZ): approximately 0.1%
concentration in CSF ([1]; mice, all sampling points (15, 30, 60 min) after i.p. 3.5 mg/kg CNO, detection limit): 1 to 2.5 nM
decline within 60 min in plasma and brain tissue ([1]; mice, single injection of CLZ): approximately 2 fold
SMILES: CN1CCN(C2=Nc3cc(Cl)ccc3Nc3ccccc32)CC1 [CLZ, clozapine]
behavioural changes in 5-CSRTT parameters (C57BL/6 J mice; CLZ 0.1, 0.3 and 1 mg/kg i.p., vs vehicle): did not produce any significant behavioural changes in most 5-CSRTT parameters
